Test results as given in PubChem BioAssay (NCI).
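Test compounds were applied to cells in 96-well plates for 48 hours at 5 doses. TGI: total growth inhibition.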

Experiments:
Assay in all cases: growth of human tumour cells (NCI), 48 h
[1] = system: MCF7 breast
[2] = system: COLO 205 colon
[3] = system: NCI/ADR-RES ovarian
[4] = system: DU-145 prostate
[5] = system: SW-620 colon
[6] = system: U251 CNS
[7] = system: IGROV1 ovarian
[8] = system: SK-OV-3 ovarian
[9] = system: OVCAR-5 ovarian
[10] = system: UACC-62 melanoma
[11] = system: TK-10 renal
[12] = system: OVCAR-3 ovarian
[13] = system: CAKI-1 renal
[14] = system: SR leukemia
[15] = system: NCI-H522 lung
[16] = system: SNB-75 CNS
[17] = system: KM12 colon
[18] = system: HCT-15 colon
[19] = system: SK-MEL-28 melanoma
[20] = system: MDA-N
[21] = system: A498 renal
[22] = system: MDA-MB-435
[23] = system: K-562 leukemia
[24] = system: HCT-116 colon
[25] = system: HOP-92 NSCLC
[26] = system: BT-549 breast
[27] = system: SK-MEL-2 melanoma
[28] = system: NCI-H23 lung
[29] = system: RPMI-8226 leukemia
[30] = system: HCC-2998 colon
[31] = system: 786-0 renal
[32] = system: T-47D breast
[33] = system: UACC-257 melanoma
[34] = system: EKVX NSCLC
[35] = system: SF-295 CNS
[36] = system: RXF 393 renal
[37] = system: SF-268 CNS
[38] = system: SNB-19 CNS
[39] = system: A549 NSCLC
[40] = system: MOLT-4 leukemia
[41] = system: HS 578T breast
[42] = system: SF-539 CNS
[43] = system: NCI-H460 lung
[44] = system: PC-3 prostate
[45] = system: LOX IMVI melanoma
[46] = system: OVCAR-4 ovarian
[47] = system: UO-31 renal
[48] = system: M14 melanoma
[49] = system: HOP-62 NSCLC
[50] = system: SN12C renal
[51] = system: MDA-MB-231 breast
[52] = system: OVCAR-8 ovarian
[53] = system: ACHN renal
[54] = system: CCRF-CEM leukemia
[55] = system: HT29 colon
[56] = system: SK-MEL-5 melanoma
[57] = system: MALME-3M melanoma
[58] = system: HL-60(TB) leukemia
[59] = system: NCI-H226 lung

`CCCc1cc(=O)oc2c(C=O)c(O)cc(O)c12` was tested, and the TGI [1] was 80 µM, the TGI [2] was 40.8 µM and the TGI [3] was 73 µM. For the same compound, the TGI [4] was 82.2 µM, the TGI [5] was 56.4 µM and the TGI [6] was 55.7 µM. It also gave a TGI [7] greater than 100 µM, a TGI [8] of 86.9 µM and a TGI [9] of 74.4 µM. For the same compound, the TGI [10] was 38.4 µM, the TGI [11] was greater than 100 µM and the TGI [12] was 44.3 µM. It also gave a TGI [13] of 75.8 µM, a TGI [14] of 58.1 µM and a TGI [15] of 41.9 µM. It also gave a TGI [16] of 47.4 µM, a TGI [17] of 61.2 µM and a TGI [18] of 73.4 µM. The TGI [19] was 62.8 µM, the TGI [20] was 75.6 µM and the TGI [21] was 40.6 µM. It also gave a TGI [22] of 55.3 µM, a TGI [23] greater than 100 µM and a TGI [24] of 47.2 µM. For the same compound, the TGI [25] was 45.8 µM, the TGI [26] was 77.1 µM and the TGI [27] was 48.4 µM. The TGI [28] was 48 µM, the TGI [29] was 66.5 µM and the TGI [30] was 33.6 µM. For the same compound, the TGI [31] was greater than 100 µM, the TGI [32] was 74.9 µM and the TGI [33] was 65.2 µM. The TGI [34] was 56.3 µM, the TGI [35] was 85 µM and the TGI [36] was 53 µM. For the same compound, the TGI [37] was 76.5 µM, the TGI [38] was 87.1 µM and the TGI [39] was greater than 100 µM. The TGI [40] was 56.5 µM, the TGI [41] was 61.2 µM and the TGI [42] was 57 µM. The TGI [43] was 69.5 µM, the TGI [44] was 59.3 µM and the TGI [45] was 40.3 µM. For the same compound, the TGI [46] was 73.5 µM, the TGI [47] was 60.2 µM and the TGI [48] was 52.7 µM. The TGI [49] was 59.7 µM, the TGI [50] was 78.9 µM and the TGI [51] was 58.2 µM. It also gave a TGI [52] of 62 µM, a TGI [53] of 86.7 µM and a TGI [54] of 51.4 µM. It also gave a TGI [55] of 64.5 µM, a TGI [56] of 37.8 µM and a TGI [57] of 42.1 µM. It also gave a TGI [58] of 42.7 µM.
For `O=C(NO)c1ccc(OCc2cccc(Cl)c2)cc1`, the TGI [1] was greater than 100 µM, the TGI [2] was 51.7 µM and the TGI [3] was greater than 29.8 µM. The TGI [4] was greater than 47.3 µM, the TGI [5] was greater than 100 µM and the TGI [6] was greater than 60.5 µM. The TGI [7] was 23.3 µM, the TGI [8] was 66.1 µM and the TGI [9] was greater than 40.8 µM. It also gave a TGI [10] of 21.7 µM, a TGI [11] of 32.3 µM and a TGI [12] greater than 64.1 µM. The TGI [13] was 37.5 µM, the TGI [14] was greater than 28.5 µM and the TGI [15] was 19.2 µM. For the same compound, the TGI [59] was 36 µM, the TGI [16] was greater than 70.2 µM and the TGI [17] was 29.9 µM. It also gave a TGI [18] of 29.9 µM, a TGI [19] of 65.1 µM and a TGI [20] of 35.4 µM. The TGI [21] was 20 µM, the TGI [22] was 44 µM and the TGI [23] was greater than 31.6 µM. The TGI [24] was 14.4 µM, the TGI [25] was 51.4 µM and the TGI [26] was 48 µM. It also gave a TGI [27] of 70.4 µM, a TGI [28] of 20.9 µM and a TGI [29] greater than 58.9 µM. The TGI [30] was 24.4 µM, the TGI [31] was 19.1 µM and the TGI [32] was greater than 61.5 µM. For the same compound, the TGI [33] was 46.8 µM, the TGI [34] was 30.2 µM and the TGI [35] was 35.2 µM. For the same compound, the TGI [36] was 47.6 µM, the TGI [37] was 38.2 µM and the TGI [38] was greater than 100 µM. It also gave a TGI [39] greater than 63.8 µM, a TGI [40] greater than 45.9 µM and a TGI [41] greater than 96 µM. For the same compound, the TGI [42] was greater than 41.8 µM, the TGI [43] was 26 µM and the TGI [44] was greater than 44.1 µM. For the same compound, the TGI [45] was greater than 56.6 µM, the TGI [46] was greater than 58 µM and the TGI [47] was 35.6 µM. It also gave a TGI [48] greater than 45.8 µM, a TGI [49] greater than 47 µM and a TGI [50] of 55.9 µM. It also gave a TGI [51] of 43.2 µM, a TGI [52] of 33.3 µM and a TGI [53] of 25 µM. For the same compound, the TGI [54] was greater than 100 µM, the TGI [55] was 25.6 µM and the TGI [56] was greater than 100 µM. The TGI [58] was 20.8 µM.
Work on `CCCCC(C(=O)N/N=C/c1ccc([N+](=O)[O-])o1)C(=O)N/N=C/c1ccc([N+](=O)[O-])o1` yielded a TGI [1] of 22.4 µM, a TGI [2] of 14.7 µM and a TGI [3] of 5.91 µM. It also gave a TGI [4] of 42.9 µM, a TGI [5] of 6.71 µM and a TGI [6] of 10.3 µM. The TGI [7] was 4.22 µM, the TGI [8] was 50.9 µM and the TGI [9] was 7.23 µM. It also gave a TGI [10] of 11.5 µM, a TGI [11] of 7.73 µM and a TGI [12] of 5.65 µM. For the same compound, the TGI [13] was 14.7 µM, the TGI [59] was 5.1 µM and the TGI [16] was 33.5 µM. It also gave a TGI [17] of 15.4 µM, a TGI [18] of 6.47 µM and a TGI [19] of 14.7 µM. For the same compound, the TGI [20] was 16.1 µM, the TGI [21] was 41 µM and the TGI [22] was 25.2 µM. The TGI [23] was 14.6 µM, the TGI [24] was 2.9 µM and the TGI [25] was 4.08 µM. The TGI [26] was 17.2 µM, the TGI [27] was 36.1 µM and the TGI [28] was 4.65 µM. For the same compound, the TGI [29] was 3.18 µM, the TGI [31] was 5.5 µM and the TGI [32] was 7.69 µM. The TGI [34] was 26.6 µM, the TGI [35] was 31.4 µM and the TGI [36] was 5.07 µM. It also gave a TGI [37] of 20.3 µM, a TGI [38] of 13.7 µM and a TGI [39] of 41.4 µM. It also gave a TGI [40] of 7.72 µM, a TGI [41] of 5.57 µM and a TGI [42] of 35.5 µM. For the same compound, the TGI [43] was 35.6 µM, the TGI [44] was 14.4 µM and the TGI [45] was 5.92 µM. It also gave a TGI [46] of 3.4 µM, a TGI [47] of 4.6 µM and a TGI [48] of 13.6 µM. The TGI [49] was 28.8 µM, the TGI [50] was 12.3 µM and the TGI [51] was 12 µM. The TGI [52] was 5.89 µM, the TGI [53] was 3.69 µM and the TGI [54] was 5.58 µM. For the same compound, the TGI [55] was 5.16 µM, the TGI [56] was 14.6 µM and the TGI [57] was 7.93 µM. The TGI [58] was 6.71 µM.
